Measurements: patent US11378570B2, “Cytotoxicity test method for medical devices” (Alcon Inc., priority 2017, dated 2022)

Tested on: Mouse lymphoma TK cells
Assay: TK suspension cell assay, treatment with dilutions of BAK and ZDBC
Format: cell-based
Conditions: 72±2 hours; for dose dependence of the decrease in cell growth: serial dilutions, 5% or 10% FBS
Experimental: For each test material, data were collected and the mean and SD were calculated using Excel. The IC50 was calculated using SigmaPlot. Determination of cytotoxicity and test acceptance criteria followed those described in JMHLW and ISO 10993-5: The relative colony-forming rate/relative growth rate of positive control (reference material B) should be equal or less than 10%, and negative control (Wako disk) should be equal or greater than 80%.
Relative cell growth rate (%)=[100×(Test cell concentration at time 72 hours−mean of blank cell concentration at time 0)÷(mean of blank cell concentration at time 72 hours−mean of blank cell concentration at time 0)]. The results are expressed as the mean±standard deviation (SD) from three independent studies and each study has six replicates for each lens.
Phosphate buffer (Cat. #SH30028.02, HyClone, Logan, Utah) was used for dilutions of BAK (1.25, 2.5, 5, 10, 25, and 50 parts per million) (Cat. #B1068, Spectrum Chemical, New Brunswick, N.J.). A total of 900 μL of 2.2×10^4 cells/mL TK cells in assay medium (RPMIFBS10 or RPMIFBS05) were seeded in a 24-well plate and then treated with different dilutions of BAK (100 μL) to achieve final concentrations of 0.125, 0.25, 0.5, 1.0, 2.5, and 5 ppm. Phosphate buffer (100 μL)-treated cells served as a blank control, reference material B (diameter (ϕ): 14 mm) as a positive control, and Wako tissue culture plastic disk served a negative control. After 72±2 hours incubation, 600 μL cells were mixed and transferred into the counter vial. The relative cell growth rate was determined and calculated as described above. The results are expressed as the mean±SD based on three replicates.
DMSO was used to dissolve ZDBC powder (Cat. #Z1031, Spectrum Chemical, New Brunswick, N.J.) to make […], 0.1, 0.2, 0.4, 0.8, and 2 mg/mL dilutions. Next, 995 μL of 2.0×10^4 cells/mL TK cells in assay medium (either RPMIFBS10 or RPMIFBS05) were seeded in a 24-well plate and treated with 5 μL of different ZDBC dilutions to achieve final concentrations of 0.25, 0.5, 1, 2, 4, and 10 μg/mL. DMSO (5 μL)-treated cells served as a blank control, reference material B (diameter (ϕ): 14 mm) as a positive control, and Wako tissue culture plastic disk served a negative control. After 72±2 hours incubation, 600 μL cells were mixed and transferred into the counter vial. The relative cell growth rate was determined and calculated as described above. The results are expressed as the mean±SD based on three replicates.

| IC50 (relative cell growth rate) (5% FBS) [ppm] | IC50 (relative cell growth rate) (10% FBS) [ppm] | Substance | cytotoxicity (at 0.25 and 0.125 ppm) | cell growth inhibition as compared to the blank control (at 5, 2.5, 1, and 0.5 ppm) | dose dependence of the decrease in cell growth | IC50 (relative cell growth rate) (5% FBS medium) [µg/mL] | IC50 (relative cell growth rate) (10% FBS medium) [µg/mL] |
| --- | --- | --- | --- | --- | --- | --- | --- |
| 0.55 | 0.59 | benzalkonium chloride [BAK] | not cytotoxic | significant cell growth inhibition | dose-dependent decrease in cell growth |  |  |
|  |  | zinc dibutyldithiocarbamate [ZDBC] |  |  | dose-dependent decrease in cell growth | 2.0 | 4.5 |
